Results reported in patent US20260242390A1, “TOTAL SYNTHESES OF PORTIMINE A AND ANALOGUES THEREOF AS SMALL MOLECULE MODULATORS OF NMD3” (priority 2023, published 2026).

System: MC38 colon carcinoma
Experiment: MC38 Syngeneic Tumor Xenograft Model
Format: in vivo, mouse
Conditions: 0.3 or 1.0 mg/kg, i.p.
Experimental: FIG. 4. Validation of NMD3 as target of Portimine A by Chemo-precipitation (ChP). Portimine A mouse pharmacokinetic properties and fast acting in vitro cell-based target engagement properties based on compound wash-out. (A) Pharmacokinetic studies of mouse intraperitoneal (i.p.) and oral (p.o.) administration for portimine (n=3). […] Impact of PA [0.3 or 1 mg/kg intraperitoneally] on MC38 tumor growth in WT mice (n=6). (C) Kaplan-Myer survival curve of WT MC38 tumor-bearing mice (n=6) after treatment with PA as described in (D). Mice were euthanized when tumor area exceeded 2000 mm^3. Statistical analysis was performed using ANOVA analysis followed by multiple comparisons test, * p≤0.05. Treatment condition: Jurkat (60 M per condition); PA-DA/ePA-DA concentration: 0.5 uM, PA or ePA: 5 uM; Incubate with probe with or without competitors (PA, ePA) for 30 min; UV irradiated for 20 min. (0.5 uM PA-DA add a no-UV condition); Standard pulldown & biotin-enrichment and western blot analysis (Elute condition: 2× sample buffer+500 uM biotin, boil for 20 mins); Primary antibody NMD3 (ProteinTech, 1:150), Actin (BioRad, 1:10000).
FIG. 9. […] (A) Systemic Portimine A in MC38 Syngeneic Tumor Xenograft Model; and (B) Systemic Portimine A in HT-1080 Tumor Xenograft Model. […]

## C=CC1=C[C@@H]2[C@@H]3O[C@]4(CC[C@H](O4)C(C)C[C@@H](O)C3=O)CC(O)C3=NCC[C@@]32CC1 (stereo partly shown) [PA, portimine A]
  anti-tumor activity, MC38 colon carcinoma syngeneic model: Potent anti-tumor activity
